Measured values: patent EP4650353A1 (Shanghai Institute of Materia Medica, Chinese Academy of …, priority 2023, dated 2024)
Read-outs that look alike come from different tables or passages of the source.

Target: T1, human GLP-1 receptor (Homo sapiens, UniProt P43220)
T1 construct: HA (N); expressed in transfected cells
Experiment: GLP-1 receptor-mediated agonist activity: cAMP level in hGLP-1R/HEK293 cell line (HTRF)
Assay type: cell-based

[1] = cAMP levels of the hGLP-1R/HEK293 cell line, Table 2, comparison with reference compounds, read-out: EC50
[2] = cAMP levels in hGLP-1R/HEK293 cell line, Table 1, read-out: determined EC50

T1 sequence (P43220 24-463): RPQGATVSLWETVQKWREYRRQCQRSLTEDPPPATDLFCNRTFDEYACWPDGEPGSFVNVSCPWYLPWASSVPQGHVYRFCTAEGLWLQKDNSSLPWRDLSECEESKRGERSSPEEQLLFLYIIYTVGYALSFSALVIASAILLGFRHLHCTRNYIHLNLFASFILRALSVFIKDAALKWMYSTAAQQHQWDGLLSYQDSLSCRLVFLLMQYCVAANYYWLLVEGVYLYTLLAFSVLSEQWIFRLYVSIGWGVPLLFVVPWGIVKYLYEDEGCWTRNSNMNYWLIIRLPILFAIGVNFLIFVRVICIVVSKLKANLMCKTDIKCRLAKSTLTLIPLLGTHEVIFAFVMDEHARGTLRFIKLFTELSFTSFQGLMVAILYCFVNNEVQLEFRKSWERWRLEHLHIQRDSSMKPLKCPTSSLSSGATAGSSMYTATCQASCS
Description: The hGLP-1R/HEK293 cells were digested, centrifuged and resuspended in culture medium (DMEM+0.2% BSA, m/v), and the cell density was adjusted to 2×10^5 cells/mL. IBMX (3-isobutyl-1-methylxanthine, final concentration of 0.5 mM) was added to the cell suspension and added to a 384-well plate at 5 µL (1×10^3 cells)/well. The compound was dissolved in DMSO to prepare a stock solution with a concentration of 10 mM. The experiment started with a concentration of 100 µM which was diluted 10 times in a series of 7 dilution points, with the 8th point being DMSO. 2 µL of the test compound of different concentrations was added to 98 µL of culture medium, shaken and mixed, 5 µL was taken and added to a 384-well plate (final concentration of the test compound was 0-100 nM, final concentration of DMSO was 1%, v/v), which was then incubated in the incubator (37°C, 5% CO2) in the dark for 30 min, then 10 µL of cAMP detection reagent (LANCE Ultra cAMP Detecion Kit, PerkinElmer, #TRF0264) was added, mixed well, and reacted at room temperature in the dark for 1 h. After the reaction was completed, the HTRF signal was read using the Envision 2104 multi-function microplate reader. All samples were tested in triplicate wells, and the ratio of the acceptor-donor excitation signal in each single well was calculated using the formula Ratio = Signal 665nM/Signal 620nM. The HTRF signal ratio and the corresponding compound concentration were analyzed and processed using GraphPad Prism 8 software, and the EC50 value of the compound was obtained by fitting the S-type dose-response curve and calculating.

| SMILES | EC50 [1] [nM] | EC50 [2] [nM] |
| --- | --- | --- |
| CC1(c2ccc(Cl)cn2)Oc2cccc(N3C=NN(Cc4nc5ccc(C(=O)O)cc5n4C[C@@H]4CCO4)CC3)c2O1 (some centres unmarked) [CN2022114139828 , Compound 36, reference compound] | 0.336 |  |
| O=C(O)c1ccc2nc(CN3CCC(c4cccnc4OCc4ccc(Cl)cc4F)CC3)n(C[C@@H]3CCO3)c2c1 [WO2019239371 , Example 1, reference compound] | 0.0458 |  |
| CCOc1cc(C(=O)O)cc2c1nc(CN1CCC(c3cccc(OCc4ccc(C#N)cc4F)n3)CC1)n2C[C@@H]1CCO1 [Compound 2, (S)-2-((4-(6-((4-cyano-2-fluorobenzyl)oxy)pyridin-2-yl)piperidin-1-yl)methyl)-4-ethoxy-1-(oxetan-2-ylmethyl)-1H-benzo[d]imidazole-6-carboxylic acid] |  | 0.0011 |
| COc1cc(C(F)(F)F)ccc1COc1cccc(C2CCN(Cc3nc4c(OC)cc(C(=O)O)cc4n3C[C@@H]3CCO3)CC2)n1 [Compound 51, (S)-4-methoxy-2-((4-(6-((2-methoxy-4-(trifluoromethyl)benzyl)oxy)pyridin-2-yl)piperidin-1-yl)methyl)-1-(oxetan-2-ylmethyl)-1H-benzo[d]imidazole-6-carboxylic acid] |  | 0.0016 |
| [2H]C([2H])([2H])C([2H])([2H])Oc1cc(C(=O)O)cc2c1nc(CN1CCC(c3cccc4c3OC(C)(c3ccc(Cl)cn3)O4)CC1)n2C[C@@H]1CCO1 (stereo partly drawn) [Compound 72, 2-((4-(2-(5-chloropyridin-2-yl)-2-methylbenzo[d][1,3]dioxol-4-yl)piperidin-1-yl)methyl)-4-(ethoxy-d5)-1-(((S)-oxetan-2-yl)methyl)-1H-benzo[d]imidazole-6-carboxylic acid] |  | 0.01 |
| CC1(c2ccc(Cl)cn2)Oc2cccc(C3CCN(Cc4nc5c(OC(F)F)cc(C(=O)O)cc5n4C[C@@H]4CCO4)CC3)c2O1 (stereo partly drawn) [Compound 62, 2-((4-(2-(5-chloropyridin-2-yl)-2-methylbenzo[d][1,3]dioxol-4-yl)piperidin-1-yl)methyl)-4-(difluoromethoxy)-1-(((S)-oxetan-2-yl)methyl)-1H-benzo[d]imidazole-6-carboxylic acid] |  | 0.022 |
| COc1cc(C(=O)O)cc2c1nc(CN1CCC(c3ccccc3OCc3ccc(Cl)cc3F)CC1)n2C[C@@H]1CCO1 [Compound 48, (S)-2-((4-(2-((4-chloro-2-fluorobenzyl)oxy)phenyl)piperidin-1-yl)methyl)-4-methoxy-1-(oxetan-2-ylmethyl)-1H-benzo[d]imidazole-6-carboxylic acid] |  | 0.0434 |
| COc1cc(C(=O)O)cc2c1nc(CN1CCC(c3ccccc3OCc3ccc(C#N)cc3F)CC1)n2C[C@@H]1CCO1 [Compound 47, (S)-2-((4-(2-((4-cyano-2-fluorobenzyl)oxy)phenyl)piperidin-1-yl)methyl)-4-methoxy-1-(oxetan-2-ylmethyl)-1H-benzo[d]imidazole-6-carboxylic acid] |  | 0.0613 |
| CCOc1cc(C(=O)O)cc2c1nc(CN1CCC(c3cccc(OCc4ccc(C(F)(F)F)cc4F)n3)CC1)n2C[C@@H]1CCO1 [Compound 28, (S)-4-ethoxy-2-((4-(6-((2-fluoro-4-(trifluoromethyl)benzyl)oxy)pyridin-2-yl)piperidin-1-yl)methyl)-1-(oxetan-2-ylmethyl)-1H-benzo[d]imidazole-6-carboxylic acid] |  | 0.0074 |
| [2H]C([2H])([2H])Oc1cc(C(=O)O)cc2c1nc(CN1CCN(c3cccc4c3OC(C)(c3ccc(Cl)cn3)O4)C=N1)n2C[C@@H]1CCO1 (stereo partly drawn) [Compound 70, 2-((4-(2-(5-chloropyridin-2-yl)-2-methylbenzo[d][1,3]dioxol-4-yl)-5,6-dihydro-1,2,4-triazin-1(4H)-yl)methyl)-4-(methoxy-d3)-1-(((S)-oxetan-2-yl)methyl)-1H-benzo[d]imidazole-6-carboxylic acid] |  | 0.0273 |
| CC1(c2ccc(Cl)cc2F)Oc2cccc(N3C=NN(Cc4nc5ccc(C(=O)O)cc5n4C[C@@H]4CCO4)CC3)c2O1 (some centres unmarked) [CN2022114139828 , Compound 37, reference compound] | 0.137 |  |
| [2H]C([2H])([2H])C([2H])([2H])Oc1cc(C(=O)O)cc2c1nc(CN1CCN(c3cccc4c3OC(C)(c3ccc(F)cc3F)O4)C=N1)n2C[C@@H]1CCO1 (stereo partly drawn) [Compound 87, 2-((4-(2-(2,4-difluorophenyl)-2-methylbenzo[d][1,3]dioxol-4-yl)-5,6-dihydro-1,2,4-triazin-1(4H)-yl)methyl)-4-(ethoxy-d5)-1-(((S)-oxetan-2-yl)methyl)-1H-benzo[d]imidazole-6-carboxylic acid] |  | 0.0212 |
| COc1cc(C#N)ccc1COc1ncccc1C1CCN(Cc2nc3c(OC)cc(C(=O)O)cc3n2C[C@@H]2CCO2)CC1 [Compound 34, (S)-2-((4-(2-((4-cyano-2-methoxybenzyl)oxy)pyridin-3-yl)piperidin-1-yl)methyl)-4-methoxy-1-(oxetan-2-ylmethyl)-1H-benzo[d]imidazole-6-carboxylic acid] |  | 0.0033 |
| [2H]C([2H])([2H])C([2H])([2H])Oc1cc(C(=O)O)cc2c1nc(CN1CCN(c3cccc4c3OC(C)(c3cc(F)c(Cl)cc3F)O4)C=N1)n2C[C@@H]1CCO1 (stereo partly drawn) [Compound 80, 2-((4-(2-(4-chloro-2,5-difluorophenyl)-2-methylbenzo[d][1,3]dioxol-4-yl)-5,6-dihydro-1,2,4-triazin-1(4H)-yl)methyl)-4-(ethoxy-d5)-1-(((S)-oxetan-2-yl)methyl)-1H-benzo[d]imidazole-6-carboxylic acid] |  | 0.0438 |
| [2H]C([2H])([2H])Oc1cc(C(=O)O)cc2c1nc(CN1CCN(c3cccc4c3OC(C)(c3ccc(C(F)(F)F)cc3OC)O4)C=N1)n2C[C@@H]1CCO1 (stereo partly drawn) [Compound 89, 4-(Methoxy-d3)-2-((4-(2-(2-methoxy-4-(trifluoromethyl)phenyl)-2-methylbenzo[d][1,3]dioxol-4-yl)-5,6-dihydro-1,2,4-triazin-1(4H)-yl)methyl)-1-(((S)-oxetan-2-yl)methyl)-1H-benzo[d]imidazole-6-carboxylic acid] |  | 0.0075 |
| N#Cc1ccc(COc2cccc(N3C=NN(Cc4nc5c(OC(F)F)cc(C(=O)O)cc5n4C[C@@H]4CCO4)CC3)n2)c(F)c1 [Compound 11, (S)-2-((4-(6-((4-cyano-2-fluorobenzyl)oxy)pyridin-2-yl)-5,6-dihydro-1,2,4-triazin-1(4H)-yl)methyl)-4-(difluoromethoxy)-1-(oxetan-2-ylmethyl)-1H-benzo[d]imidazole-6-carboxylic acid] |  | 0.0133 |
| CCOc1cc(C(=O)O)cc2c1nc(CN1CCN(c3cccc4c3OC(C)(c3ccc(Cl)cc3OC)O4)C=N1)n2C[C@@H]1CCO1 (stereo partly drawn) [Compound 85, 2-((4-(2-(4-chloro-2-methoxyphenyl)-2-methylbenzo[d][1,3]dioxol-4-yl)-5,6-dihydro-1,2,4-triazin-1(4H)-yl)methyl)-4-ethoxy-1-(((S)-oxetan-2-yl)methyl)-1H-benzo[d]imidazole-6-carboxylic acid] |  | 0.005 |
| N#Cc1ccc(COc2cccc(C3CCN(Cc4nc5ccc(C(=O)O)cc5n4C[C@@H]4CCO4)CC3)n2)c2occc12 [CN113480534 , Compound 3, reference compound] | 0.0127 |  |
| COc1cc(C(=O)O)cc2c1nc(CN1CCC(c3cccc4c3OC(C)(c3ccc(Cl)cc3F)O4)CC1)n2C[C@@H]1CCO1 (stereo partly drawn) [Compound 36, 2-((4-(2-(4-chloro-2-fluorophenyl)-2-methylbenzo[d][1,3]dioxol-4-yl)piperidin-1-yl)methyl)-4-methoxy-1-(((S)-oxetan-2-yl)methyl)-1H-benzo[d]imidazole-6-carboxylic acid] |  | 0.0083 |
| COc1cc(C(=O)O)cc2c1nc(CN1CCN(c3cccc(OCc4ccc(Cl)cc4F)n3)CC1)n2C[C@@H]1CCO1 [Compound 30, (S)-2-((4-(6-((4-chloro-2-fluorobenzyl)oxy)pyridin-2-yl)piperazin-1-yl)methyl)-4-methoxy-1-(oxetan-2-ylmethyl)-1H-benzo[d]imidazole-6-carboxylic acid] |  | 0.0096 |
| CCOc1cc(C(=O)O)cc2c1nc(CN1CCC(c3cccnc3OCc3ccc(Cl)cc3F)CC1)n2C[C@@H]1CCO1 [Compound 32, (S)-2-((4-(2-((4-chloro-2-fluorobenzyl)oxy)pyridin-3-yl)piperidin-1-yl)methyl)-4-ethoxy-1-(oxetan-2-ylmethyl)-1H-benzo[d]imidazole-6-carboxylic acid] |  | 0.0142 |
| CC1(c2ccc(Cl)cc2F)Oc2cccc(C3CCN(Cc4nc5ccc(C(=O)O)cc5n4C[C@@H]4CCO4)CC3)c2O1 (some centres unmarked) [WO2019239319 , Example 7, reference compound] | 0.022 |  |
| CCOc1cc(C(=O)O)cc2c1nc(CN1CCC(c3cccc4c3OC(C)(c3ccc(C(F)(F)F)cc3OC)O4)CC1)n2C[C@@H]1CCO1 (some centres unmarked) [Compound 60] |  | 0.0026 |
| N#Cc1ccc(COc2cccc(C3CCN(Cc4nc5c(OCC6CC6)cc(C(=O)O)cc5n4C[C@@H]4CCO4)CC3)n2)c(F)c1 [Compound 5, (S)-2-((4-(6-((4-cyano-2-fluorobenzyl)oxy)pyridin-2-yl)piperidin-1-yl)methyl)-4-(cyclopropylmethoxy)-1-(oxetan-2-ylmethyl)-1H-benzo[d]imidazole-6-carboxylic acid] |  | 0.012 |
| [2H]C([2H])([2H])Oc1cc(C(=O)O)cc2c1nc(CN1CCN(c3cccc4c3OC(C)(c3ccc(Cl)cc3OC)O4)C=N1)n2C[C@@H]1CCO1 (stereo partly drawn) [Compound 84, 2-((4-(2-(4-chloro-2-methoxyphenyl)-2-methylbenzo[d][1,3]dioxol-4-yl)-5,6-dihydro-1,2,4-triazin-1(4H)-yl)methyl)-4-(methoxy-d3)-1-(((S)-oxetan-2-yl)methyl)-1H-benzo[d]imidazole-6-carboxylic acid] |  | 0.0098 |
| COc1cc(C(F)(F)F)ccc1C1(C)Oc2cccc(N3C=NN(Cc4nc5c(OC)cc(C(=O)O)cc5n4C[C@@H]4CCO4)CC3)c2O1 (stereo partly drawn) [Compound 88, 4-methoxy-2-((4-(2-(2-methoxy-4-(trifluoromethyl)phenyl)-2-methylbenzo[d][1,3]dioxol-4-yl)-5,6-dihydro-1,2,4-triazin-1(4H)-yl)methyl)-1-(((S)-oxetan-2-yl)methyl)-1H-benzo[d]imidazole-6-carboxylic acid] |  | 0.0087 |
